In patent US12643889B2, “Synthesis of novel EP4 antagonist and use in cancer and inflammation” (Wuhan Humanwell Innovative Drug Research And Development …, priority 2020, dated 2026):

Legend:
[1] = Mouse pharmacokinetic assay; assay type: in vivo, male ICR mice; settings: male, ICR, plasma
Procedure: (§1) In a mouse pharmacokinetic assay, male ICR mice (20 g to 25 g) were selected and fasted overnight. Three mice were selected and intragastrically administered with 5 mg/kg of the corresponding compound. The blood of the mice was collected before the administration and at 15 min, 30 min, 1 h, 2 h, 4 h, 8 h, 24 h after the administration. Another 3 mice were intravenously administered with 1 mg/kg of the corresponding compound, and the blood thereof was collected before the administration and at 15 min, 30 min, 1 h, 2 h, 4 h, 8 h, 24 h after the administration. The blood samples were centrifuged at 6800 g at 2° C. to 8° C. for 6 minutes, and plasma was collected and stored at −80° C. The plasma was taken at respective time point, mixed with 3-5 times the amount of acetonitrile containing internal standard, vortexed for 1 minute, centrifuged at 4° C. for 10 minutes at 13000 rpm, supernatant was added 3 times the amount of water, and the appropriate mixture was taken for LC-MS/MS analysis. The primary pharmacokinetic parameters were analyzed with a WinNonlin 7.0 software, with non-compartmental model.

human EP4 receptor [2] = target: T1, human EP4 receptor (Homo sapiens, UniProt P35408); test: Assay of calcium current inhibition on EP4 receptor (FLIPR, 293 cells); assay type: cell-based; parameters: expressed in transfected cells; host or cells: 293 cells; settings: 293 cells overexpressing human EP4; PGE2 at EC80; FLIPR
Procedure: The cells were rapidly thawed in a 37° C. water bath, centrifuged, resuspended, and counted. The cell suspensions were seeded at 20 μL/well in two 384-well plates (20,000 cells/well) and placed in an incubator (a 37° C., 5% CO2) overnight. Preparation of a 2× Fluo-4 Direct™ (Invitrogen, Cat #F10471) loading buffer: 77 mg of probenecid was added to 1 mL of a FLIPR buffer, with a concentration of 250 mM. 10 mL of FLIPR buffer and 0.2 mL of probenecid (250 mM) were added to each tube of Fluo-4 Direct™ crystals (F10471).
One of the cell plates was taken out of the incubator and the medium was removed. 20 μL of an assay buffer and 2× Fluo-4 Direct™ non-wash loading buffer were added to the 384-well cell culture plate to a final volume of 40 μL, and then the culture plate was incubated in an incubator (a 37° C., 5% CO2) for 50 minutes, and then at room temperature for 10 minutes, and then the plate was placed in the FLIPR. 10 μL of the buffer was transferred to the cell plate and the fluorescence signal was read. The agonist PGE2 was formulated as a 10 mM stock in a DMSO solvent and 10 concentration points of the 6× working solution were serially diluted using the buffer. 10 μL of the agonist PGE2 was transferred to the cell plate, the fluorescence signal was read to calculate EC80 value.
The agonist PGE2 was prepared at 6× EC80 concentration and the compound to be tested was formulated as a 10 mM stock solution in the DMSO solvent and 10 concentration points of the 6× compound working solution was serially diluted using the buffer.
Another cell plate was taken to remove media and 20 μL of the assay buffer and 2× Fluo-4 Direct™ non-wash loading buffer were added; the cell plate was incubated in a 37° C., 5% CO2 incubator for 50 minutes and room temperature for 10 minutes and then placed in the FLIPR. 10 μL of the compound working solution, DMSO, and the EP4 full antagonist were transferred to the cell plate and the fluorescence signal was read. […] Inhibition (%)=100−(test group−EP4 full antagonist group)/(DMSO group−EP4 full antagonist group)*100
Compound's IC50 value of EP4 calcium current inhibition was calculated based on the inhibition rate at different concentrations of the compound.

[3] = target: T2, recombinant human EP4 receptor membrane protein (Homo sapiens, UniProt P35408); test: Radioligand binding assay for EP4 receptor ([3H]-PGE2); settings: [3H]-PGE2 1.5 nM; membrane protein 20 μg/well
T2 construct: expressed in transfected cells; host or cells: membranes of 293 cells overexpressing human EP4 receptor
Procedure: The compounds to be tested and PGE2 were formulated as 10 mM stocks in a DMSO solvent, and then 8 concentration points of 4× working solution were serially diluted using a buffer (50 mM HBSS, 0.1% BSA, 500 mM NaCl). […] Unifilter-96 GF/C filter plate (Perkin Elmer) was soaked with 0.5% BSA, 50 μL per well, for at least 30 min at room temperature. After binding was complete, the reaction mixture was harvested through a GF/C plate using a Perkin Elmer Filtermate Harvester, followed by washing the filter plate and drying the filter plate for 1 hour at 50° C. After drying, the bottom of the filter plate wells was sealed using a Perkin Elmer Unifilter-96 sealing tape, and 50 μL of MicroScint™-20 cocktail (Perkin Elmer) was added to seal the top of the filter plate. The ^3H counts captured on the filter were read using a Perkin Elmer MicroBeta2 Reader.
The IC50 and Ki values of the compounds determined by the radioligand binding assay for EP4 receptor were calculated based on the inhibition rate of the different concentrations of the compounds.

human EP4 receptor [4] = target: T1, human EP4 receptor; test: Assay for EP4 antagonistic effect (cAMP, PGE2-stimulated CHO stable cell line)
Procedure: After trypsinization, cells were resuspended in a buffer (1×HBSS, 0.1% BSA, 20 mM HEPES, and 500 μM IBMX) and 8000 cells were seeded per well in 384-well plates in a seeding volume of 15 μL. A working solution the compound with a 8× concentration was prepared with an experimental buffer, and then 2.5 μL of the working solution of the compound with 8× concentration was added to the 384-well plate, respectively, and incubated at 37° C. for 30 min. An agonist PGE2 working solution with 8× concentration of (4 nM) was prepared with the experimental buffer and 2.5 μL per well was added to the 384-well plate (the final PGE2 concentration was 0.5 nM) and incubated at 37° C. for 30 min. After the reaction was completed, the amount of cAMP in the cells was quantified according to the method in the instructions of the cAMP test kit (Perkin Elmer, Cat #TRF0263). The antagonistic effects (IC50 value) were calculated for the test compounds.

[5] = Canine pharmacokinetic assay; assay type: in vivo, male Beagle dogs; settings: male, Beagle, dog, plasma, canine
Procedure: as §1
In a canine pharmacokinetic assay, male Beagle dogs (8 kg to 10 Kg) were selected and fasted overnight. Three Beagle dogs were taken and intragastrically administered with 3 mg/kg of the corresponding compound. Another 3 Beagle dogs were intravenously administered with 1 mg/kg of the corresponding compound. The following operations were the same as the mouse pharmacokinetic assay.

[6] = tested on: CT-26 murine colon cancer tumor model; test: Anti-tumor effect in CT-26 murine colon cancer tumor model in combination with radiation therapy; assay type: in vivo, mouse; settings: 150 mg/kg intragastric once daily in combination with radiotherapy (3Gry, once on day 1); day 23; tumor weight
Procedure: In this assay, the anti-tumor effects of the control compound and the compounds prepared in Examples 1 to 43, in combination with radiation therapy, were tested in a CT-26 murine colon cancer tumor model.
After one week of adaptive feeding of mice, CT-26 cells in a log phase were resuspended in PBS, 5×10^5 CT-26 cells were inoculated subcutaneously at the right flank at 100 μL per mouse, and tumor growth was observed regularly. When the tumor grew to an average volume of 60 to 80 mm^3, the mice carrying the tumor were randomly divided into 5 groups based on the tumor volume size, each group containing 10 mice of 10. These group were a group of Control compound (150 mg/kg) in combination with radiotherapy (3Gry), a group of Compound I-2 (150 mg/kg) in combination with radiotherapy, a group of Compound I-5 (150 mg/kg) in combination with radiotherapy, a group of radiotherapy (3Gry) alone, and a group of vehicle control. The mice were intragastrically administered with the corresponding compound once daily, for 23 days in total; radiation therapy was performed for one-time on the first day of the administration. Tumor volumes and mouse body weights were measured twice a week, and tumor weights were weighed at the end of the experiment. Efficacy evaluations were performed based on relative tumor inhibition (TGI), safety evaluations were performed based on changes in animal body weight and death. Tumor volume and relative tumor inhibition were calculated as follows:
Tumor volume (TV)=½×a×b^2, where a and b are the length and width of the tumor measurement, respectively.
Relative tumor inhibition rate TGI (%)=(TWc−TWt/TWc)×100%, where TWc is the mean tumor weight of the vehicle control group and TW is the mean tumor weight of the treatment group.

[7] = Rat pharmacokinetic assay; assay type: in vivo, male SD rats; settings: male, SD, plasma, rat
Procedure: as §1
In a rat pharmacokinetic assay, male SD rats (180 g to 240 g) were selected and fasted overnight. Three rats were intragastrically administered with 5 mg/kg of the corresponding compound. Another 3 rats were intravenously administered with 1 mg/kg of the corresponding compound. The following operations were the same as the mouse pharmacokinetic assay.

[8] = oral gavage administration 5 mg/kg
[9] = oral gavage administration 3 mg/kg
[10] = intravenous administration 1 mg/kg
[11] = intravenous administration 1 mg/kg, read-out: Vz

T2 sequence (P35408 whole entry): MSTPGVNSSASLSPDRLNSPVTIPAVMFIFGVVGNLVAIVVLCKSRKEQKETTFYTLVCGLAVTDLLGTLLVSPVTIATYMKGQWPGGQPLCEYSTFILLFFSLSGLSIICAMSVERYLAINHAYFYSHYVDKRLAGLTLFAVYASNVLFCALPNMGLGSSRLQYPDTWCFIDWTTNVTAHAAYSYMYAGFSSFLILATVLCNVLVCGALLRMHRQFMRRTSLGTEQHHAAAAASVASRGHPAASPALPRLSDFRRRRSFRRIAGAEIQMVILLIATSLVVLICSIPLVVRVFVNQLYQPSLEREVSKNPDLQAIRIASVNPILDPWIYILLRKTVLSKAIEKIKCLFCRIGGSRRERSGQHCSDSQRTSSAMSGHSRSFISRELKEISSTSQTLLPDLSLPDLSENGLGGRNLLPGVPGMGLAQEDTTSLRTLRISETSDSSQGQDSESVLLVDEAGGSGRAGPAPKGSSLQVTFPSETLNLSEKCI
T1 sequence (P35408 whole entry): as above

SMILES	AUC(0-t) [1, 8] [ng·h/mL]	Cmax [1, 8] [ng/mL]	Tmax [1, 8] [h]	half-life [1, 8] [h]	IC50 (human EP4 receptor [2]) [nM]	IC50 [3] [nM]	Ki [3] [nM]	IC50 (human EP4 receptor [4]) [nM]	AUC(0-t) [5, 9] [ng·h/mL]	Cmax [5, 9] [ng/mL]	Tmax [5, 9] [h]	half-life [5, 9] [h]	relative tumor inhibition rate TGI (%) [6] [%]	further results
CCc1cccc(Oc2c(C(=O)N[C@@H](C)c3ccc(C(=O)O)cc3)c(C(F)F)nn2C)c1 [Compound I-1, (S)-4-(1-(3-(difluoromethyl)-5-(3-ethylphenoxy)-1-methyl-1H-pyrazole-4-carboxamido)ethyl)benzoic Acid]	2140	1110	0.33	4.33	15	16	8.9	3.7						
C[C@H](NC(=O)c1c(C(F)F)nn(C)c1Oc1csc(C(F)(F)F)c1)c1ccc(C(=O)O)cc1 [Compound I-42, (S)-4-(1-(3-(difluoromethyl)-1-methyl-5-((5-(trifluoromethyl)thiophen-3-yl)oxy)-1H-pyrazole-4-carboxamido)ethyl)benzoic Acid]	2440	570	0.33	23.2	15	13	7.3	8.6	7190	4850	0.25	8.35		
C[C@H](NC(=O)c1c(C(F)F)nn(C)c1Oc1cccc(C(F)(F)F)c1)c1ccc(C(=O)O)cc1 [Control Compound, reference compound]	1770	792	0.25	30.9					6800	1360	1	18.6	54	AUC(0-t) [7, 10]: 1420 ng·h/mL; clearance [7, 10]: 10.2 mL/min/kg; half-life [7, 10]: 10.9 h; Vd [7, 11]: 9.55 L/kg; AUC(0-t) [7, 8]: 6850 ng·h/mL; Cmax [7, 8]: 1100 ng/mL; Tmax [7, 8]: 0.5 h; half-life [7, 8]: 12.7 h; AUC(0-t) [1, 10]: 974 ng·h/mL; clearance [1, 10]: 14.7 mL/min/kg; half-life [1, 10]: 6.64 h; Vd [1, 11]: 8.38 L/kg; AUC(0-t) [5, 10]: 3730 ng·h/mL; clearance [5, 10]: 4 mL/min/kg; half-life [5, 10]: 9.36 h; Vd [5, 11]: 3.21 L/kg
C[C@H](NC(=O)c1c(C(F)F)nn(C)c1Sc1cccc(C(F)(F)F)c1)c1ccc(C(=O)O)cc1 [Compound I-35, (S)-4-(1-(3-(difluoromethyl)-1-methyl-5-((3-(trifluoromethyl)phenyl)thio)-1H-pyrazole-4-carboxamido)ethyl)benzoic Acid]	3060	1040	0.33	7.12	6	28	15	6.6						
CCc1cc(Oc2c(C(=O)N[C@@H](C)c3ccc(C(=O)O)cc3)c(C(F)F)nn2C)ccc1F [Compound I-2, (S)-4-(1-(3-(difluoromethyl)-5-(3-ethyl-4-fluorophenoxy)-1-methyl-1H-pyrazole-4-carboxamido)ethyl)benzoic Acid]	2140	1840	0.33	15.7	7.4	5.5	3	1.9					63	
C[C@H](NC(=O)c1c(C(F)F)nn(C)c1Oc1cccc(CC(F)(F)F)c1)c1ccc(C(=O)O)cc1 [Compound I-6, (S)-4-(1-(3-(difluoromethyl)-1-methyl-5-(3-(2,2,2-trifluoroethyl)phenoxy)-1H-pyrazole-4-carboxamido)ethyl)benzoic Acid]	4440	1280	0.42	7.22	8	11	5.8	8.2						
